Experimental data published in PubChem BioAssay AID1963421 (Molecular Pharmacology Branch, DTP, NCI, 2024).
Blank lines part the entries; values can stand above or below the compound they belong to.

Tested on: 519858-162-T-J1-PDC complex spheroid growth, % test/control
Assay: Anticancer human tumor 519858-162-T-J1-PDC patient-derived colon adenocarcinoma cell line growth inhibition [Asc]
Details: for IC50: curve of first compound; for viability, T/C: stronger effect = lower value
Procedure: Multicellular complex tumor spheroid response to apoptosis pathway targeting inhibitors Alrizomadlin, Pelcitoclax, and Dasminapant in combination with a variety of drugs and investigational agents in selected tumor cell lines
The MDM2 inhibitor alrizomadlin, the Bcl-2/Bcl-xL inhibitor pelcitoclax, and the IAPs inhibitor dasminapant were evaluated both individually and in combination with standard of care and investigational anticancer small molecules within a complex spheroid model of solid tumors. . Complex spheroids include a stromal component modeled by human endothelial cells (HUVEC) and fibroblasts modeled by human mesenchymal stem cells (MSCs). The concentration ranges selected for each drug and investigational agent were based upon clinically achievable concentrations if the clinical Cmax of the agent was known.
Compounds. The drugs and investigational agents: alrizomadlin (APG-115; NSC831270), pelcitoclax (APG-1252; NSC835773), dasminapant (APG-1387;NSC834197), TAK-243 (NSC785004), copanlisib (NSC809693), olaparib (NSC753686), talazoparib (NSC767125), cobimetinib (NSC 768068), eltanexor (KPT-8602, NSC 794443), abemaciclib (NSC 768073), sotorasib (NSC818433), adagrasib (NSC 831453), MRTX-1133 (NSC 836407), Iadademestat (ORY1001, NSC 806812), and RMC-4630 (NSC839698), were obtained from the NCI Developmental Therapeutics Program Chemical Repository. The FDA-approved anticancer drug set is available from the Developmental Therapeutics Program at https://dtp.cancer.gov/organization/dscb/obtaining/available plates.htm. […] The stock solutions were prepared in dimethyl sulfoxide (DMSO, Sigma-Aldrich, St. Louis, MO, cat. D2650) at 800-fold the tested concentration and stored at -70 degrees C prior to their use. All drugs and investigational agents were tested over a range starting from a high concentration at or near the clinical Cmax and decreasing in half-log increments. If the clinical Cmax for an agent had not been determined, the highest concentration tested was 10 microM.
The patient-derived cancer (PDC) cell lines include five colon adenocarcinomas: 186277-243-T-J2-PDC, 616215-338-R-J1-PDC, 439559-082-T-J2-PDC, 463943-066-T-J2-PDC, and 519858-162-T-J1-PDC; three pancreatic carcinomas: 323965-272-R-J2-PDC, 521955-158-R6-J3-PDC, and 521955-158-R2-J5-PDC; two uterine sarcomas: 327498-152-R-J2-PDC and 993429-296-R-J1-PDC; two rhabdomyosarcomas: 755483-174-R-J1-PDC and 772245-204-R-J1-PDC; two soft tissue sarcomas: 126254-015-R-J1-PDC and 494315-158-R-J1-PDC; two malignant fibrous histiocytomas: 317291-083-R-J1-PDC and 596521-263-R-J1-PDC; two breast carcinomas: 171881-019-R-J1-PDC and 885512-296-R-J2-PDC; and one ovarian carcinoma: 6556581-035-R-J-PDC were obtained from the NCI PDMR, (https://pdmr.cancer.gov). The established cell lines HSSY-2 synovial sarcoma (RRID:CVCL 8719), SYO-1 synovial sarcoma (RRID:CVCL_7146), MPNST malignant peripheral neural sheath tumor were obtained from the Sloan Kettering Institute. The following established cell lines were purchased from the American Type Culture Collection (ATCC, Manassas, VA), Sor the received from the NCI repository:, PANC-1 pancreatic carcinoma (CRL-1469, RRID:CVCL_0480), OVCAR-5 ovarian carcinoma (RRID:CVCL_1628), OVCAR-8 ovarian carcinoma (RRID:CVCL_1629), , MCF-7 breast carcinoma (CRL-12584, RRID:CVCL_0031), MDA-MB-231 breast carcinoma (CRL-12532, RRID:CVCL_0062), NCI-H1876 small cell lung carcinoma (CRL-5902, RRID:CVCL_1503), NCI-H510A small cell lung carcinoma (HTB-184, RRID:CVCL_1565), NCI-H1417 (CRL-5869, RRID:CVCL_1469), and NCI-H196 small cell lung carcinoma (CRL-5823, RRID:CVCL_1509). Dr. Peter Houghton (Greehey Children's Cancer Research Institute, University of Texas Health Science Center, San Antonio, TX) provided Rh-18 rhabdomyosarcoma (RRID:CVCL_1659). Pooled donor human umbilical vein endothelial cells (HUVEC, Lonza, cat. CC-2519) and human mesenchymal stem cells (hMSC, Lonza, cat. PT-2501) were purchased from Lonza (Walkersville, MD).
Cell Culture. […]
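Note: seven day drug exposure begun three days after spheroid seeding.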
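Throughout, for viability, T/C: 100% = DMSO vehicle wells and lower values mean less viable spheroid.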

IC50 (second compound 0.00949 µM): > 0.1 µM
IC50 (second compound 0.03 µM): > 0.1 µM
IC50 (second compound 0.0949 µM): > 0.1 µM
IC50 (second compound 0.3 µM): > 0.1 µM
IC50 (second compound 0.949 µM): > 0.1 µM
IC50 (second compound 3 µM): > 0.1 µM
SMILES: NC1CCC(NC2CC2c2ccccc2)CC1 (centres undefined) + CCN1C(C(=O)NC23CCC(C(=O)O)(CC2)CC3)C(c2cccc(Cl)c2F)C2(C(=O)Nc3cc(Cl)ccc32)C12CCCCC2
viability, T/C (second compound 0.00949 µM, first compound 0.000316 µM): 101%
viability, T/C (second compound 0.00949 µM, first compound 0.001 µM): 129%
viability, T/C (second compound 0.00949 µM, first compound 0.00316 µM): 130%
viability, T/C (second compound 0.00949 µM, first compound 0.01 µM): 112%
viability, T/C (second compound 0.00949 µM, first compound 0.0316 µM): 107%
viability, T/C (second compound 0.00949 µM, first compound 0.1 µM): 92.4%
viability, T/C (second compound 0.03 µM, first compound 0.000316 µM): 146%
viability, T/C (second compound 0.03 µM, first compound 0.001 µM): 149%
viability, T/C (second compound 0.03 µM, first compound 0.00316 µM): 101%
viability, T/C (second compound 0.03 µM, first compound 0.01 µM): 84.1%
viability, T/C (second compound 0.03 µM, first compound 0.0316 µM): 70.2%
viability, T/C (second compound 0.03 µM, first compound 0.1 µM): 110%
viability, T/C (second compound 0.0949 µM, first compound 0.000316 µM): 136%
viability, T/C (second compound 0.0949 µM, first compound 0.001 µM): 127%
viability, T/C (second compound 0.0949 µM, first compound 0.00316 µM): 136%
viability, T/C (second compound 0.0949 µM, first compound 0.01 µM): 124%
viability, T/C (second compound 0.0949 µM, first compound 0.0316 µM): 128%
viability, T/C (second compound 0.0949 µM, first compound 0.1 µM): 107%
viability, T/C (second compound 0.3 µM, first compound 0.000316 µM): 101%
viability, T/C (second compound 0.3 µM, first compound 0.001 µM): 82%
viability, T/C (second compound 0.3 µM, first compound 0.00316 µM): 99.6%
viability, T/C (second compound 0.3 µM, first compound 0.01 µM): 95.7%
viability, T/C (second compound 0.3 µM, first compound 0.0316 µM): 95.4%
viability, T/C (second compound 0.3 µM, first compound 0.1 µM): 129%
viability, T/C (second compound 0.949 µM, first compound 0.000316 µM): 97.5%
viability, T/C (second compound 0.949 µM, first compound 0.001 µM): 83.1%
viability, T/C (second compound 0.949 µM, first compound 0.00316 µM): 117%
viability, T/C (second compound 0.949 µM, first compound 0.01 µM): 89.1%
viability, T/C (second compound 0.949 µM, first compound 0.0316 µM): 89.9%
viability, T/C (second compound 0.949 µM, first compound 0.1 µM): 91%
viability, T/C (second compound 3 µM, first compound 0.000316 µM): 66.9%
viability, T/C (second compound 3 µM, first compound 0.001 µM): 86.8%
viability, T/C (second compound 3 µM, first compound 0.00316 µM): 74.4%
viability, T/C (second compound 3 µM, first compound 0.01 µM): 66.3%
viability, T/C (second compound 3 µM, first compound 0.0316 µM): 74.3%
viability, T/C (second compound 3 µM, first compound 0.1 µM): 89.2%

IC50 (second compound 0.0316 µM): > 1 µM
IC50 (second compound 0.1 µM): > 1 µM
IC50 (second compound 0.316 µM): > 1 µM
IC50 (second compound 1 µM): > 1 µM
IC50 (second compound 3.16 µM): > 1 µM
IC50 (second compound 10 µM): > 1 µM
SMILES: CCN1CCN(Cc2ccc(Nc3ncc(F)c(-c4cc(F)c5nc(C)n(C(C)C)c5c4)n3)nc2)CC1 + Cc1c(S(C)(=O)=O)c(-c2cc(F)cc(N3CCN(c4ccc(NS(=O)(=O)c5ccc(NC(CCN6CCC(C(=O)OCCCP(=O)(O)O)CC6)CSc6ccccc6)c(S(=O)(=O)C(F)(F)F)c5)cc4)CC3)c2)c(-c2ccc(Cl)cc2)n1C(C)C
viability, T/C (second compound 0.0316 µM, first compound 0.00316 µM): 124%
viability, T/C (second compound 0.0316 µM, first compound 0.01 µM): 106%
viability, T/C (second compound 0.0316 µM, first compound 0.0316 µM): 62.9%
viability, T/C (second compound 0.0316 µM, first compound 0.1 µM): 92%
viability, T/C (second compound 0.0316 µM, first compound 0.316 µM): 84.8%
viability, T/C (second compound 0.0316 µM, first compound 1 µM): 72.3%
viability, T/C (second compound 0.1 µM, first compound 0.00316 µM): 109%
viability, T/C (second compound 0.1 µM, first compound 0.01 µM): 95.8%
viability, T/C (second compound 0.1 µM, first compound 0.0316 µM): 89.2%
viability, T/C (second compound 0.1 µM, first compound 0.1 µM): 86.3%
viability, T/C (second compound 0.1 µM, first compound 0.316 µM): 79.5%
viability, T/C (second compound 0.1 µM, first compound 1 µM): 112%
viability, T/C (second compound 0.316 µM, first compound 0.00316 µM): 119%
viability, T/C (second compound 0.316 µM, first compound 0.01 µM): 109%
viability, T/C (second compound 0.316 µM, first compound 0.0316 µM): 98.3%
viability, T/C (second compound 0.316 µM, first compound 0.1 µM): 60.5%
viability, T/C (second compound 0.316 µM, first compound 0.316 µM): 95.6%
viability, T/C (second compound 0.316 µM, first compound 1 µM): 69.7%
viability, T/C (second compound 1 µM, first compound 0.00316 µM): 87.4%
viability, T/C (second compound 1 µM, first compound 0.01 µM): 76%
viability, T/C (second compound 1 µM, first compound 0.0316 µM): 62.6%
viability, T/C (second compound 1 µM, first compound 0.1 µM): 79%
viability, T/C (second compound 1 µM, first compound 0.316 µM): 75.2%
viability, T/C (second compound 1 µM, first compound 1 µM): 56.4%
viability, T/C (second compound 3.16 µM, first compound 0.00316 µM): 90.5%
viability, T/C (second compound 3.16 µM, first compound 0.01 µM): 68.6%
viability, T/C (second compound 3.16 µM, first compound 0.0316 µM): 101%
viability, T/C (second compound 3.16 µM, first compound 0.1 µM): 73.7%
viability, T/C (second compound 3.16 µM, first compound 0.316 µM): 67%
viability, T/C (second compound 3.16 µM, first compound 1 µM): 57.2%
viability, T/C (second compound 10 µM, first compound 0.00316 µM): 77.7%
viability, T/C (second compound 10 µM, first compound 0.01 µM): 61.1%
viability, T/C (second compound 10 µM, first compound 0.0316 µM): 62.6%
viability, T/C (second compound 10 µM, first compound 0.1 µM): 72.8%
viability, T/C (second compound 10 µM, first compound 0.316 µM): 63.3%
viability, T/C (second compound 10 µM, first compound 1 µM): 68%
